Columns and labels:
[1] = system: galactosemic cataract in the rat; test: Action on the appearance of the galactosemic cataract (rat); format: in vivo
Method: (§1) With the compound bearing the abbreviation ARI 6 the following tests have been carried out in the rat and in the rabbit.
Action on the appearance of the galactosemic cataract (rat)
Effects of the administration of ARI-6 (5 and 25 mg/kg/die, os)
on the appearance of the galactosemic cataract in the rat.
[…] In the brackets the number of animals for each group is indicated.
The diet contains D-galactose 50%.
Effects of the administration of ARI-1 (5 and 25 mg/kg/die, os)

[2] = system: diabetic cataract in the rat; test: Action on the appearance of the diabetic cataract (rat); format: in vivo; conditions: Table 7, 25 mg/kg/die per os
Method: as §1
Action on the appearance of the diabetic cataract (rat).
Effects of the administration of ARI 6 (25 mg/kg/die, per os)
on the appearance of the diabetic cataract in the rat.
The values are expressed as percentages. Within brackets there are indicated the animals for each group.
Effects of the administration of ARI-1 (25 mg/kg/die, per os)

Acute toxicity: mice = conditions: in vivo, mouse (Swiss), read-out: % Death
Method: (§2) The toxicity tests after only one administration have been carried out on two animal species (mice and rats), using two administration routes (os, iv).
For these tests Swiss mice have been used, of both sexes, having average weight 20 g, fasted after 18 hours and administered with water ad libitum. The animals were maintained under standard environment conditions (temperature: 20°-22° C. and moisture 50%).
(§3) The compounds have been administered by gastric probe, suspended in Methocell or by injection (iv) dissolved in physiological solution with the addition of sodium bicarbonate.
(§4) The animals have been kept under observation for 15 days. The controls have been carried out several times in the first days and twice a day in the next days. In the table 1 the conditions used and the results obtained are reported.

Acute toxicity: rat = conditions: in vivo, rat (Wistar), 20 ml/kg, read-out: % Death
Excerpt: as §2, §3, §4
Wistar rats, of both sexes have been used of average weight of 120 g, fasted after 18 hours and with water at libitum. The conditions of stalling and the administration ways were the same as those reported in the preceeding paragraph (acute toxicity: mouse).

aldose reductase = molecular target: T1, aldose reductase (Bos taurus, UniProt P16116); test: In vitro inhibition of aldose reductase activity of raw extracts from bovine crystalline lens; format: biochemical; conditions: glyceraldehyde substrate, NADPH, pH 6.8, 37° C.; read-out: IC50 on the aldose reductase activity of raw extracts originating from bovine crystalline lens
T1 construct: 4 bovine crystalline lenses (8 g) are homogenized by means of Potter in ice bath; from tissue; host or cells: bovine crystalline lens
Method: "In vitro" tests have been carried out to evalute the inhibition of the aldose reductase activity, prepared from the extract of bovine crystalline lenses.
PREPARATION OF THE RAW EXTRACTS
4 bovine crystalline lenses (8 g) are homogenized by means of Potter in ice bath with 40 ml of 50 mM phosphate buffer, pH 6.8, containing 2-mercaptoethanol pH ([…]). After centrifugation (12.000×g -20 min-4° C.) the supernatant is brought to 40% saturation with an ammonium sulphate and centrifugated again (14.000×g). The supernatant is then brought to the 80% saturation ((NH4)2 SO4) and, after centrifugation for 20 minutes and at 14.000×g, the sedimented matter is recovered and suspended in 7 ml of phosphate buffer. The enzymatic preparation is dialyzed by ultrafiltration with AMICON ultrafiltration cell.
DOSAGE OF THE ENZYMATIC ACTIVITY
The reference cuvette contains all the several substances apart from the substrate.

[3] = Table 6, 5 mg/kg/die os, day 5 of diet
[4] = Table 6, 5 mg/kg/die os, day 10 of diet, * p < 0.05 vs controls
[5] = Table 6, 5 mg/kg/die os, day 15 of diet, * p < 0.05 vs controls
[6] = Table 6, 5 mg/kg/die os, day 20 of diet, * p < 0.05 vs controls
[7] = Table 6, 5 mg/kg/die os, day 25 of diet, * p < 0.05 vs controls
[8] = Table 6, 5 mg/kg/die os, day 30 of diet, * p < 0.05 vs controls
[9] = Table 6, 5 mg/kg/die os, day 35 of diet, * p < 0.05 vs controls
[10] = Table 6, 5 mg/kg/die os, day 40 of diet, * p < 0.05 vs controls
[11] = Table 6, 5 mg/kg/die os, day 45 of diet, * p < 0.05 vs controls
[12] = Table 6, 5 mg/kg/die os, day 50 of diet
[13] = Table 6, 25 mg/kg/die os, day 5 of diet
[14] = Table 6, 25 mg/kg/die os, day 10 of diet, * p < 0.05 vs controls
[15] = Table 6, 25 mg/kg/die os, day 15 of diet, * p < 0.05 vs controls
[16] = Table 6, 25 mg/kg/die os, day 20 of diet, * p < 0.05 vs controls
[17] = Table 6, 25 mg/kg/die os, day 25 of diet, * p < 0.05 vs controls
[18] = Table 6, 25 mg/kg/die os, day 30 of diet, * p < 0.05 vs controls
[19] = Table 6, 25 mg/kg/die os, day 35 of diet, * p < 0.05 vs controls
[20] = Table 6, 25 mg/kg/die os, day 40 of diet, * p < 0.05 vs controls
[21] = Table 6, 25 mg/kg/die os, day 45 of diet, * p < 0.05 vs controls
[22] = Table 6, 25 mg/kg/die os, day 50 of diet
[23] = day 10 from streptozotocine, * p < 0.05 vs controls
[24] = day 15 from streptozotocine, * p < 0.05 vs controls
[25] = day 20 from streptozotocine, * p < 0.05 vs controls
[26] = day 25 from streptozotocine, * p < 0.05 vs controls
[27] = day 30 from streptozotocine, * p < 0.05 vs controls
[28] = day 35 from streptozotocine, * p < 0.05 vs controls
[29] = day 40 from streptozotocine, * p < 0.05 vs controls
[30] = day 45 from streptozotocine, * p < 0.05 vs controls
[31] = day 50 from streptozotocine, * p < 0.05 vs controls

Q: With Cc1cc(C)c(S(=O)(=O)N(C)CC(=O)O)cc1S(=O)(=O)N(C)CC(=O)O [ARI 1, 4,6-dimethyl-1,3-bis (N-methyl-N-caboxymethl) sulfamoybenzene] as the compound, how does the “number of eyes with cataract on the total number of observed eyes” value (“number … on the total number of observed eyes” below) [1, 3] read?
A: Its value is 0/20.

Q: What about the “percentage of eyes with cataract” value [1, 3] of the same compound?
A: Its value is 0.0%.

Q: What about the “number … on the total number of observed eyes” value [1, 4] of the same compound?
A: The value was 0/20.

Q: What about the “percentage of eyes with cataract” value [1, 4] of the same compound?
A: Its value is 0.0%.

Q: And the “number … on the total number of observed eyes” value [1, 5]?
A: The value was 0/20.

Q: What about the “percentage of eyes with cataract” value [1, 5] of the same compound?
A: Its value is 0.0%.

Q: What about the “number … on the total number of observed eyes” value [1, 6] of the same compound?
A: The value was 0/20.

Q: And the “percentage of eyes with cataract” value [1, 6]?
A: The value was 0.0%.

Q: What about the “number … on the total number of observed eyes” value [1, 7] of the same compound?
A: The value was 3/20.

Q: What about the “percentage of eyes with cataract” value [1, 7] of the same compound?
A: Its value is 15.0%.

Q: What about the “number … on the total number of observed eyes” value [1, 8] of the same compound?
A: Its value is 4/20.

Q: What about the “percentage of eyes with cataract” value [1, 8] of the same compound?
A: The value was 20.0%.

Q: What about the “number … on the total number of observed eyes” value [1, 9] of the same compound?
A: Its value is 8/20.

Q: And the “percentage of eyes with cataract” value [1, 9]?
A: Its value is 40.0%.

Q: And the “number … on the total number of observed eyes” value [1, 10]?
A: Its value is 8/20.

Q: And the “percentage of eyes with cataract” value [1, 10]?
A: The value was 100.0%.

Q: What about the “number … on the total number of observed eyes” value [1, 11] of the same compound?
A: The value was 20/20.

Q: And the “percentage of eyes with cataract” value [1, 11]?
A: The value was 100.0%.

Q: And the “number … on the total number of observed eyes” value [1, 12]?
A: The value was 20/20.

Q: And the “percentage of eyes with cataract” value [1, 12]?
A: The value was 100.0%.

Q: And the “number … on the total number of observed eyes” value [1, 13]?
A: Its value is 0/20.

Q: And the “percentage of eyes with cataract” value [1, 13]?
A: Its value is 0.0%.

Q: What about the “number … on the total number of observed eyes” value [1, 14] of the same compound?
A: The value was 0/20.

Q: And the “percentage of eyes with cataract” value [1, 14]?
A: Its value is 0.0%.

Q: What about the “number … on the total number of observed eyes” value [1, 15] of the same compound?
A: The value was 0/20.

Q: And the “percentage of eyes with cataract” value [1, 15]?
A: Its value is 0.0%.

Q: What about the “number … on the total number of observed eyes” value [1, 16] of the same compound?
A: The value was 0/20.

Q: And the “percentage of eyes with cataract” value [1, 16]?
A: The value was 0.0%.

Q: What about the “number … on the total number of observed eyes” value [1, 17] of the same compound?
A: Its value is 0/20.

Q: What about the “percentage of eyes with cataract” value [1, 17] of the same compound?
A: Its value is 0.0%.

Q: And the “number … on the total number of observed eyes” value [1, 18]?
A: The value was 0/20.

Q: And the “percentage of eyes with cataract” value [1, 18]?
A: The value was 0.0%.

Q: And the “number … on the total number of observed eyes” value [1, 19]?
A: The value was 0/20.

Q: What about the “percentage of eyes with cataract” value [1, 19] of the same compound?
A: The value was 0.0%.

Q: What about the “number … on the total number of observed eyes” value [1, 20] of the same compound?
A: Its value is 3/20.

Q: What about the “percentage of eyes with cataract” value [1, 20] of the same compound?
A: Its value is 15.0%.

Q: What about the “number … on the total number of observed eyes” value [1, 21] of the same compound?
A: Its value is 5/20.

Q: What about the “percentage of eyes with cataract” value [1, 21] of the same compound?
A: Its value is 25.0%.

Q: What about the “number … on the total number of observed eyes” value [1, 22] of the same compound?
A: The value was 20/20.

Q: What about the “percentage of eyes with cataract” value [1, 22] of the same compound?
A: Its value is 100.0%.

Q: And the “number of eyes with cataract with respect the total number of observed eyes” value ([2]; day 5 from streptozotocine)?
A: The value was 0/20.

Q: And the “percentage of eyes with cataract” value ([2]; day 5 from streptozotocine)?
A: Its value is 0.0%.

Q: And the “number of eyes with cataract with respect the total number of observed eyes” value [2, 23]?
A: Its value is 0/20.

Q: What about the “percentage of eyes with cataract” value [2, 23] of the same compound?
A: The value was 0.0%.

Q: What about the “number of eyes with cataract with respect the total number of observed eyes” value [2, 24] of the same compound?
A: Its value is 0/20.

Q: What about the “percentage of eyes with cataract” value [2, 24] of the same compound?
A: The value was 0.0%.

Q: And the “number of eyes with cataract with respect the total number of observed eyes” value [2, 25]?
A: Its value is 0/20.

Q: What about the “percentage of eyes with cataract” value [2, 25] of the same compound?
A: Its value is 0.0%.

Q: What about the “number of eyes with cataract with respect the total number of observed eyes” value [2, 26] of the same compound?
A: The value was 0/20.

Q: What about the “percentage of eyes with cataract” value [2, 26] of the same compound?
A: Its value is 0.0%.

Q: And the “number of eyes with cataract with respect the total number of observed eyes” value [2, 27]?
A: Its value is 0/20.

Q: And the “percentage of eyes with cataract” value [2, 27]?
A: Its value is 0.0%.

Q: And the “number of eyes with cataract with respect the total number of observed eyes” value [2, 28]?
A: Its value is 0/20.

Q: What about the “percentage of eyes with cataract” value [2, 28] of the same compound?
A: The value was 0.0%.

Q: What about the “number of eyes with cataract with respect the total number of observed eyes” value [2, 29] of the same compound?
A: The value was 4/20.

Q: And the “percentage of eyes with cataract” value [2, 29]?
A: Its value is 20.0%.

Q: And the “number of eyes with cataract with respect the total number of observed eyes” value [2, 30]?
A: The value was 6/20.

Q: What about the “percentage of eyes with cataract” value [2, 30] of the same compound?
A: Its value is 30.0%.

Q: What about the “number of eyes with cataract with respect the total number of observed eyes” value [2, 31] of the same compound?
A: The value was 20/20.

Q: What about the “percentage of eyes with cataract” value [2, 31] of the same compound?
A: The value was 100.0%.

Q: What about the mortality at 360 h (Acute toxicity: mice; po, 5000 mg/kg/os) of the same compound?
A: The mortality at 360 h was 0%.

Q: And the mortality at 360 h (Acute toxicity: mice; 500 mg/kg/iv, 20 ml/kg)?
A: Its mortality at 360 h is 0%.

Q: What about the mortality at 360 h (Acute toxicity: rat; po, 5000 mg/kg/os) of the same compound?
A: Its mortality at 360 h is 0%.

Q: What about the mortality at 360 h (Acute toxicity: rat; 500 mg/kg/iv) of the same compound?
A: Its mortality at 360 h is 0%.

Q: And the IC50 (aldose reductase)?
A: Its IC50 is 3.6 µM.

From patent publication US5066676A, “Sulfonamido derivative inhibiting the aldose reductase enzyme system and pharmaceutical compositions containing them” (Laboratori Baldacci SpA, priority 1987, dated 1991)
